Experiments:
h-GABAA α1β3γ2 = molecular target: T1, h-GABAA α1β3γ2 (Homo sapiens, UniProt P14867+P18507); experiment: Radioligand binding assay, [3H]Flumazenil competition, HEK293F membranes; conditions: for γ2/γ1 Selectivity Ratio: Ki α1β3γ2 (nM)/Ki α2β2γ1 (nM); for LogSel: Log[Ki α1β3γ2 (nM)/Ki α2β2γ1 (nM)]
T1 construct: expressed in transfected cells; host or cells: HEK293F cells, membranes
Outline: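 [3H]Flumazenil competition binding on membranes from HEK293F cells transiently expressing human α1β3γ2 receptors. Incubation to equilibrium for 1 h at 4 °C, then filtration and scintillation counting. Ki is the mean of two determinations.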

h-GABAA α2β2γ1 = molecular target: T2, h-GABAA α2β2γ1 (Homo sapiens, UniProt P47869+Q8N1C3); experiment: Two-electrode voltage clamp electrophysiology in Xenopus oocytes, modulation of GABA EC20 current; format: cell-based; parameters: host or cells: Xenopus laevis oocytes, RNA micro-injection; conditions: Table 2; for Efficacy (GABA)%: % modulation of GABA EC20 = 100*(Fold increase−1), compound at approx. 30-fold Ki; for Fold increase h-GABA-A α2β2γ1 oocyte @ 30-fold Ki: compound at approx. 30-fold its Ki α2β2γ1, GABA EC20, Xenopus oocytes
T2 sequence (P47869 29-451): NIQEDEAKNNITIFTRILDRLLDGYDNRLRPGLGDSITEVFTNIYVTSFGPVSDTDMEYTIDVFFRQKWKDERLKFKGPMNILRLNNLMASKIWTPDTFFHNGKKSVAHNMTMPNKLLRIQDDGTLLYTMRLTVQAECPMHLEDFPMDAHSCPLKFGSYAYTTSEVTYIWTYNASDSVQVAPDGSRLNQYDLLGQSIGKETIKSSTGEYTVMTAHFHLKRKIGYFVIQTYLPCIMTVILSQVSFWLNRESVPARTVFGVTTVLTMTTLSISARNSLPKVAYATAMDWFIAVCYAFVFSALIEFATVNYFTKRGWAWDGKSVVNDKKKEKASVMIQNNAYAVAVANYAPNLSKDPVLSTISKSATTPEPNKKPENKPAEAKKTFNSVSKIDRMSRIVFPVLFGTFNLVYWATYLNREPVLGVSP
T2 sequence (P47870 25-512 partner limits assumed): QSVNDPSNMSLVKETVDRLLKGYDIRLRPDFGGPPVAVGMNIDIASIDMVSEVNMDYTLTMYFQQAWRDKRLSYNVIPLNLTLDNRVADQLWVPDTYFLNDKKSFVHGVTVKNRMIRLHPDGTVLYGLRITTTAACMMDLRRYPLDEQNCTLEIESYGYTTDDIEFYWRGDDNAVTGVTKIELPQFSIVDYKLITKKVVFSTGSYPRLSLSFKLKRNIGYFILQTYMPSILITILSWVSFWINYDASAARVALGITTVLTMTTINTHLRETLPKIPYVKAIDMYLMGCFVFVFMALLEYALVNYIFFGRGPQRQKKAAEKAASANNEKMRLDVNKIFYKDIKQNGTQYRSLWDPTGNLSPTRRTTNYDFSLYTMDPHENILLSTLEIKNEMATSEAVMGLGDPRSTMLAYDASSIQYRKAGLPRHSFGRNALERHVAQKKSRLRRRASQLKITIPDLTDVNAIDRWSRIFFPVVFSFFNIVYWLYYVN
T2 sequence (Q8N1C3 36-465): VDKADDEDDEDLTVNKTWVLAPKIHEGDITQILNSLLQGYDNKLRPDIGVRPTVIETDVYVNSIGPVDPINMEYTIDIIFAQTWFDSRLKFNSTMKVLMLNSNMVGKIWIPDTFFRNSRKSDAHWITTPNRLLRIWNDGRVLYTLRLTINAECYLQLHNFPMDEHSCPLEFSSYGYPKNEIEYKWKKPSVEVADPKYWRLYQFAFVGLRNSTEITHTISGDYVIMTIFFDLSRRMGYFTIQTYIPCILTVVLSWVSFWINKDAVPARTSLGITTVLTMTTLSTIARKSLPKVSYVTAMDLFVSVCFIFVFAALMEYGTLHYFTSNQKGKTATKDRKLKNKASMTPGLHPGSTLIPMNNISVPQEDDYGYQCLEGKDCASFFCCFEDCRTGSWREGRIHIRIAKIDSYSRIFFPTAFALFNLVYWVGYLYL
Outline: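 Oocytes injected with receptor subunit mRNA were recorded 3–5 days later by two-electrode voltage clamp at −80 mV, room temperature, pH 7.4. Compound was applied during a second GABA EC20 pulse, with at least 3 oocytes per concentration. Efficacy is the ratio-trace extremum, expressed as % modulation of GABA EC20.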

| Compound | Ki (h-GABAA α1β3γ2) [nM] | γ2/γ1 Selectivity Ratio (h-GABAA α1β3γ2; Table 1) | LogSel (h-GABAA α1β3γ2; Table 1) | γ2/γ1 Selectivity Ratio (h-GABAA α1β3γ2; Table 3) | LogSel (h-GABAA α1β3γ2; Table 3) | Efficacy (GABA)% (h-GABAA α2β2γ1) [%] | Fold increase h-GABA-A α2β2γ1 oocyte @ 30-fold Ki (h-GABAA α2β2γ1) |
| --- | --- | --- | --- | --- | --- | --- | --- |
| Cc1nnc2n1-c1ccc(C(F)(F)F)c(Cl)c1C(c1c(F)cccc1F)=NC2 [Example 40, 7-chloro-6-(2,6-difluorophenyl)-1-methyl-8-(trifluoromethyl)-4H-[1,2,4]triazolo[4,3-a][1,4]benzodiazepine] | 1010 | 37.5 | 1.57 | 37.5 | 1.6 | 75 | 1.75 |
| Cc1nnc2n1-c1ccc(I)c(Cl)c1C(c1c(F)cccc1F)=NC2 [Example 41, 7-chloro-6-(2,6-difluorophenyl)-8-iodo-1-methyl-4H-[1,2,4]triazolo[4,3-a][1,4]benzodiazepine] | 121 | 21.9 | 1.34 |  |  | 70 | 1.70 |
| Fc1cccc(F)c1C1=NCc2nnc(-c3cccnn3)n2-c2ccc(Br)c(Br)c21 [Example 42, 7,8-dibromo-6-(2,6-difluorophenyl)-1-pyridazin-3-yl-4H-[1,2,4]triazolo[4,3-a][1,4]benzodiazepine] | 243 | 44.2 | 1.65 |  |  | 97 | 1.97 |
| Fc1cccc(F)c1C1=NCc2nnc(-c3ccncn3)n2-c2ccc(Br)c(Br)c21 [Example 43, 7,8-dibromo-6-(2,6-difluorophenyl)-1-pyrimidin-4-yl-4H-[1,2,4]triazolo[4,3-a][1,4]benzodiazepine] | 510 | 88.5 | 1.95 |  |  | 23 | 1.23 |
| Clc1cccnc1C1=NCc2nnc(-c3ccncn3)n2-c2ccc(Br)c(Cl)c21 [Example 44, 8-bromo-7-chloro-6-(3-chloro-2-pyridyl)-1-pyrimidin-4-yl-4H-[1,2,4]triazolo[4,3-a][1,4]benzodiazepine] | 276 | 28.6 | 1.46 |  |  | 62 | 1.62 |
| Fc1cccnc1C1=NCc2nnc(-c3cccnn3)n2-c2ccc(Br)c(Cl)c21 [Example 45, 8-bromo-7-chloro-6-(3-fluoro-2-pyridyl)-1-pyridazin-3-yl-4H-[1,2,4]triazolo[4,3-a][1,4]benzodiazepine] | 1220 | 77.7 | 1.89 |  |  | 828 | 9.28 |
| Fc1cccnc1C1=NCc2nnc(-c3ccncn3)n2-c2ccc(Br)c(Cl)c21 [Example 46, 8-bromo-7-chloro-6-(3-fluoro-2-pyridyl)-1-pyrimidin-4-yl-4H-[1,2,4]triazolo[4,3-a][1,4]benzodiazepine] | 1160 | 45.8 | 1.66 |  |  | 55 | 1.55 |
| Clc1cccnc1C1=NCc2nnc(-c3cccnn3)n2-c2ccc(Br)c(Cl)c21 [Example 47, 8-bromo-7-chloro-6-(3-chloro-2-pyridyl)-1-pyridazin-3-yl-4H-[1,2,4]triazolo[4,3-a][1,4]benzodiazepine] | 222 | 14.0 | 1.15 |  |  | 314 | 4.14 |
| Cc1ccc2c(c1Cl)C(c1c(F)cccc1F)=NCc1nnc(-c3cccnn3)n1-2 [Example 48, 7-chloro-6-(2,6-difluorophenyl)-8-methyl-1-pyridazin-3-yl-4H-[1,2,4]triazolo[4,3-a][1,4]benzodiazepine] | 952 | 114.1 | 2.06 |  |  | 101 | 2.01 |
| Cc1ccc2c(c1Cl)C(c1c(F)cccc1F)=NCc1nnc(-c3ccncn3)n1-2 [Example 49, 7-chloro-6-(2,6-difluorophenyl)-8-methyl-1-pyrimidin-4-yl-4H-[1,2,4]triazolo[4,3-a][1,4]benzodiazepine] | 1470 | 104.3 | 2.02 |  |  | 57 | 1.57 |
| Cc1nnc2n1-c1ccc(Br)c(Cl)c1C(c1c(F)cccc1Cl)=NC2 [Example 50, 8-bromo-7-chloro-6-(2-chloro-6-fluoro-phenyl)-1-methyl-4H-[1,2,4]triazolo[4,3-a][1,4]benzodiazepine] | 73.8 | 15.8 | 1.20 |  |  | 54 | 1.54 |
| Fc1cccnc1C1=NCc2nnc(-c3cccnn3)n2-c2ccc(Cl)c(Cl)c21 [Example 54, 7,8-dichloro-6-(3-fluoro-2-pyridyl)-1-pyridazin-3-yl-4H-[1,2,4]triazolo[4,3-a][1,4]benzodiazepine] | 2070 | 68.7 | 1.84 |  |  | 602 | 7.02 |
| Fc1cccnc1C1=NCc2nnc(-c3ccncn3)n2-c2ccc(Cl)c(Cl)c21 [Example 55, 7,8-dichloro-6-(3-fluoro-2-pyridyl)-1-pyrimidin-4-yl-4H-[1,2,4]triazolo[4,3-a][1,4]benzodiazepine] | 1720 | 92.9 | 1.97 |  |  | 59 | 1.59 |
| COc1ccc2c(c1Cl)C(c1c(F)cccc1F)=NCc1nnc(-c3cccnn3)n1-2 [Example 57, 7-chloro-6-(2,6-difluorophenyl)-8-methoxy-1-pyridazin-3-yl-4H-[1,2,4]triazolo[4,3-a][1,4]benzodiazepine] | 2110 | 36.5 | 1.56 |  |  | 149 | 2.49 |
| Cn1cc(-c2nnc3n2-c2ccc(Cl)c(Cl)c2C(c2ncccc2F)=NC3)cn1 [Example 58, 7,8-dichloro-6-(3-fluoro-2-pyridyl)-1-(1-methylpyrazol-4-yl)-4H-[1,2,4]triazolo[4,3-a][1,4]benzodiazepine] | 1300 | 39.4 | 1.60 |  |  | 67 | 1.67 |
| O=c1[nH]nc2n1-c1ccc(Cl)c(Cl)c1C(c1ncccc1F)=NC2 [Example 59, 7,8-dichloro-6-(3-fluoro-2-pyridyl)-2,4-dihydro-[1,2,4]triazolo[4,3-a][1,4]benzodiazepin-1-one] | 577 | 21.9 | 1.34 |  |  | 115 | 2.15 |
| Fc1cccnc1C1=NCc2nncn2-c2ccc(Cl)c(Cl)c21 [Example 60, 7,8-dichloro-6-(3-fluoro-2-pyridyl)-4H-[1,2,4]triazolo[4,3-a][1,4]benzodiazepine] | 1110 | 28.6 | 1.46 |  |  | 132 | 2.32 |

From US20230141603A1, “BENZODIAZEPINE DERIVATIVES AS GABA A GAMMA1 PAM” (Hoffmann-La Roche Inc., priority 2021, published 2023)
